Data reported in paper PMC5625163, “Incompatibility of chemical protein synthesis inhibitors with accurate measurement of extended protein degradation rates” (Pharmacology Research & Perspectives, 2017).
Structures can show the parent of a compound that is named as a salt. Where two headings read alike, the source gives them in different places. Starred links: 1 amine or outer side, 2 acyl side, 3 side chain; linkers in the order of their positions; H or OH if unused. Positions of bridges follow the written chain, without caps; N, C: chain ends. Non-standard residues stand in square brackets, D forms with d. Residues, ends and D or L forms follow the SMILES beside them. Chains are numbered I, II in the order given. Actinocin(9to1) = Cc1c2oc3c(C)ccc(C(=O)[*:1])c3nc-2c(C(=O)[*:2])c(N)c1=O; NMeV = CN[C@H](C(=O)O)C(C)C; Sar = CNCC(=O)O

Key:
HepG2 cells [1] = experiment: [3H]-leucine incorporation protein synthesis inhibition assay in HepG2 cells; type: cell-based; details: Homo sapiens, read-out: IC50 protein synthesis inhibition
[2] = tested on: primary rat hepatocytes (PRH); experiment: [3H]-leucine incorporation protein synthesis inhibition assay in primary rat hepatocytes; type: cell-based; details: Hepatocyte, 72 h, read-out: IC50 protein synthesis inhibition
[3] = Standard MTT cell viability assay in HepG2 cells; type: cell-based, human; details: human
Method: (§1) Standard MTT assays were performed on HepG2 and PRH cells to measure cell viability. 2 × 10^4 cells per well of HepG2 were seeded into 96‐well plates in DMEM with 10% FBS and left overnight in a 37°C humidified incubator to allow cells to adhere to the plate. PRH were seeded in collagen coated 96‐well plates at a density of 2 × 10^4 cells per well. Old media was removed and replaced with 0–300 μmol/L of protein synthesis inhibitors and incubated for 72 h. A vehicle control and control with no drug was included. A quantity of 20 μL of 5 mg/mL […] in HBSS was added to each well and incubated for 2 h. A quantity of 100 μL lysis buffer (50% v/v dimethylformahyde and 20% v/v sodium dodecyl sulphate) was added to each well and the plate was incubated overnight at 37°C. The absorbance was quantified at 570 nm by a Tecan GENios micoplate reader (Germany).
(§2) Cycloheximide was incubated at 0–300 μmol/L and emetine at 0–30 μmol/L for both leucine incorporation and MTT assays.
(§3) The IC50 (concentration causing 50% protein synthesis inhibition), CC50 (concentration causing 50% cell viability), and CC10 (concentration causing 90% cell viability) were calculated by nonlinear regression of drug concentration versus leucine incorporation and MTT concentration–response graphs, respectively, using Graphpad Prism 3 software. The IC50 and CC50 values derived from the single inhibitor analyses were used for subsequent fixed‐ratio isobologram two‐drug combination analyses.

HepG2 cells [4] = experiment: Standard MTT cell viability assay in HepG2 cells; type: cell-based, human; details: 72 h
Method: as §1, §2, §3

[5] = Standard MTT cell viability assay in primary rat hepatocytes; type: cell-based; details: male, Sprague-Dawley
Method: Primary rat hepatocytes (PRH) were purchased from Invitrogen (Paisley, UK), isolated from male Sprague–Dawley rats at 9 weeks old (Lot. RS745). Cryopreserved PRH were thawed in a 37°C water bath for approximately 2 min until contents were around 90% thawed. Once thawed, the hepatocytes were added to 50 mL of prewarmed plating media (William's E media without phenol red supplemented with 5% FBS, 1 μmol/L dexamethasone, 1% solution of penicillin/streptomycin, 4 μg/mL bovine insulin, 2 mmol/L GlutaMAX™, and 15 mmol/L HEPES (CHRM® supplement A), and centrifuged for 3 min at 55g at 18°C and the supernatant fraction discarded. The hepatocytes were then resuspended in plating media at 1 × 10^6 cells per ml density.
as §1, §2, §3

HeLa cells [6] = details: cited from earlier work
HeLa cells [7] = tested on: HeLa cells; parameters: method as in Dudani et al. (1988); details: at 0.9 mmol/L in HeLa cells; ref Dudani et al. (1988); cited from earlier work
Huh‐7 cells = details: at 10 μmol/L in Huh‐7 cells; ref Yin Low et al. (2009); cited from earlier work
[8] = HepG2 cells, 72 h, single inhibitor, MTT, mean ± SD, read-out: CC50 cytotoxicity (50% cell viability)
[9] = HepG2 cells, single inhibitor, MTT
[10] = PRH, 72 h, single inhibitor, MTT, mean ± SD, read-out: CC50 cytotoxicity (50% cell viability)

SMILES | IC50 (HepG2 cells [1]; HepG2, 72 h) [nM] | IC50 [2] [nM] | CC50 at 72 h [3, 8] [nM] | CC10 (90% cell viability concentration) (HepG2 cells [4]; [9]) [nM] | CC50 at 72 h [5, 10] [nM] | concentration sufficient to cause cell toxicity (HeLa cells [6]; HeLa cells, ref Sawicki and Godman (1971)) [nM] | IC50 (HepG2 cells [1]; HepG2 cells, 72 h, single inhibitor, mean ± SD) [nM] | IC50 ([2]; PRH, single inhibitor, mean ± SD) [nM] | CC50 at 72 h [3] [nM] | CC10 (90% cell viability concentration) (HepG2 cells [4]; human) [nM] | CC50 at 72 h [5] [nM] | concentration causing cytotoxicity (HeLa cells [6]; human cell lines, including HeLa cells, ref Dudani et al. (1988)) [nM] | protein synthesis inhibition (HeLa cells [7]) [%] | cell viability (Huh‐7 cells)
Cc1c2oc3c(C)ccc(C(=O)N[C@@H]4C(=O)N[C@H](C(C)C)C(=O)N5CCC[C@H]5C(=O)N(C)CC(=O)N(C)[C@@H](C(C)C)C(=O)O[C@@H]4C)c3nc-2c(C(=O)N[C@@H]2C(=O)N[C@H](C(C)C)C(=O)N3CCC[C@H]3C(=O)N(C)CC(=O)N(C)[C@@H](C(C)C)C(=O)O[C@@H]2C)c(N)c1=O [actinomycin D] (I: T[dV]P[Sar][NMeV] / II: T[dV]P[Sar][NMeV]; ester I:1-I:C, II:1-II:C; linker I:N-II:N via Actinocin(9to1)) | 39 ± 7.4 | 1.7 ± 1.8 | 6.2 ± 7.3 | 0.17 | 0.98 ± 1.8 | 80 |  |  |  |  |  |  |  | 
COc1ccc(C[C@H](N)C(=O)N[C@H]2[C@@H](O)[C@H](n3cnc4c(N(C)C)ncnc43)O[C@@H]2CO)cc1 [puromycin, puromycin dihydrochloride] |  |  |  |  |  |  | 1600 ± 1200 | 2000 ± 2000 | 1300 ± 64 | 110 | 1600 ± 1000 | 900 | 79.6 | 
CC[C@H]1CN2CCc3cc(OC)c(OC)cc3[C@@H]2C[C@@H]1C[C@H]1NCCc2cc(OC)c(OC)cc21 [emetine, emetine dihydrochloride hydrate] | 2200 ± 1400 | 620 ± 920 | 81 ± 9 | 7.0 | 180 |  |  |  |  |  |  |  |  | over 90%
C[C@@H]1C[C@@H]([C@H](O)CC2CC(=O)NC(=O)C2)C(=O)[C@@H](C)C1 [cycloheximide] | 6600 ± 2500 | 290 ± 90 | 570 ± 510 | 24 | 680 ± 1300 |  |  |  |  |  |  |  |  | 
